We go through 3 compounds from patent US3974157A, “1-(Amino-alkyl)-2-aryl-cyclohexane alcohols and esters” (Pennwalt Corporation, priority 1975, dated 1976).

Structures can show the parent of a compound that is named as a salt.

Common to all, as to type: in vivo
Assay [1] relates to arrhythmia produced in dogs or cats by ouabain. Kind of assay: anti-arrhythmic activity: preventing or reversing the arrhythmia produced by ouabain. As to conditions: ouabain given i.v. until an arrhythmia lasting 10 minutes, after 10 mg/kg i.v. pretreatment with test compound. As to the method:
Anti-arrhythmic activity was determined by measuring the effect of the test compound in preventing or reversing the arrhythmia produced in dogs or cats by ouabain. In the test method, the animal was pretreated with 10 mg/kg (i.v.) of the test compound. The animal was then given 15 micrograms/kg of ouabain (i.v.) followed by doses of 10 micrograms/kg of ouabain at 15-minute intervals (the last dose of ouabain could be less than 10 micrograms/kg) until an arrhythmia was produced which lasted for 10 minutes. The animal was then given 5 mg/kg (i.v.) of test compound. If the arrhythmia was not reversed after 3 minutes, 1 mg/kg of xylocaine was given (i.v.) to reverse the arrhythmia. If the arrhythmia was reversed within 3 minutes by the test compound, the period of time during which the test compound effected reversal was measured (Arrythmia Reversal Time).

The nature of assay [2]: phenylbenzoquinone (PBQ) writhing method (analgesia in mice, Sigmund et al). Conditions: for ED50: Mus musculus. The method, then: (§1) Analgesia was assessed in mice utilizing the hot plate method of Eddy and Leimbach, Journal Pharmacology Expt. Therap., 107, 385, 1953, and/or the phenylbenzoquinone writhing method described by Sigmund et al, Proc. Soc. Exptl. Biol. Med., 95, 729, 1957. The hot plate method is based upon the delay in reaction time, following administration of an active analgesic when animals are placed on a heated […] plate maintained at constant temperature. Thus, the numbers of mice showing elevation of response times over control values after administration of various doses of an unknown compound are used to determine the median effective dose (ED50), which is that dose affecting 50% of the animals. The writhing method is based upon inhibition by an analgesic of the response which occurs when the chemical agent phenylbenzoquinone is injected intraperitoneally. This response is characterized by a twisting or stretching of the body and is referred to as writhing. Following administration of an analgesic or unknown compound into mice, the numbers of animals not responding to the phenylbenzoquinone challenge by writhing are determined.
A general note: An intraperitoneal irritant provokes the stretching counted in writhing tests.

Assay [3] is described as follows: hot plate method (analgesia in mice, Eddy and Leimbach). As to conditions: Mus musculus. The method, then:
as §1
Background: Thermal pain tests record how soon the animal reacts.

The subject of assay [4] is arrhythmia produced in dogs or cats by ouabain. Kind of assay: anti-arrhythmic activity: preventing or reversing the arrhythmia produced by ouabain. As to conditions: amount compound 4 mg/kg.
The mark [5] stands for this setting: ip, mice, intraperitoneal route, read-out: Analgesic Tests ED50 Hot Plate I.P.
Setting [6] is: mice, oral route, read-out: Analgesic Tests ED50 Hot Plate P.O.

Broadly, the ED50 is the midpoint of the dose-response relation.

In the case of `CC(CN(C)C)C1(O)CCCCC1c1ccccc1` (stereo not drawn) [Example XI, 1-(2-Dimethylamino-1-methylethyl)-2-phenylcyclohexanol-p-toluenesulfonate], the “Amount Ouabain” value in assay [1] came out at 88 µg/kg. Also, the ED50 worked out at 56 mg/kg in assay [2] (po, mice, phenylbenzoquinone writhing, oral route, read-out: Analgesic Tests ED50 PBQ P.O.); 32 mg/kg in assay [3] (setting [5]); 56 mg/kg in assay [3] (setting [6]). The “Arrhythmia Reversal Time” value in assay [4] came to 5 min.
In the case of `CN1CC[C@]23c4c5ccc(O)c4O[C@H]2[C@@H](O)C=C[C@H]3[C@H]1C5` [Morphine, reference compound], the ED50 in assay [2] (po, read-out: Analgesic Tests ED50 PBQ P.O.) amounted to 2.6 mg/kg; in assay [2] (sc, read-out: Analgesic Tests ED50 PBQ S.C.) it was 0.5 mg/kg; in assay [3] (ip, read-out: Analgesic Tests ED50 Hot Plate I.P.), 1.8 mg/kg; in assay [3] (po, read-out: Analgesic Tests ED50 Hot Plate P.O.) it was 18 mg/kg.
On to `CC(=O)OC1(C(C)CN(C)C)CCCCC1c1ccccc1` (single isomer, unassigned) [Example I (c), 1-(2-Dimethylamino-1-methylethyl)-2-phenylcyclohexyl acetate maleate (Major Isomer)], for which the “Amount Ouabain” value in assay [1] was 85 µg/kg. Also, in assay [2] (mice, phenylbenzoquinone writhing, oral route), the “Analgesic Tests ED50 PBQ P.O.” value came to 20 mg/kg. Also, the “Analgesic Tests ED50 PBQ S.C.” value in assay [2] (mice, phenylbenzoquinone writhing, subcutaneous route) was 3.8 mg/kg. Moreover, the figures for the ED50 in assay [3] (setting [5]) and in assay [3] (setting [6]) were 10 mg/kg and 40 mg/kg, respectively. The “Arrhythmia Reversal Time” value in assay [4] amounted to 30 min.
